Reference: the NIST ThermoML archive (doi:10.1021/je200825j)

Details: Liquid mixture 1, Drop weight

CCCCCCCCCC [decane] + O
Details	interfacial tension [mN/m]
297.85 K, 110 kPa	51.96
323.35 K, 180 kPa	47.78
323.35 K, 22250 kPa	48.88
323.35 K, 39800 kPa	49.11
343.45 K, 150 kPa	46.28
343.45 K, 22850 kPa	47.68
343.45 K, 49020 kPa	48.39
374.25 K, 200 kPa	42.87
374.25 K, 23000 kPa	44.13
374.25 K, 47150 kPa	45.21
403.05 K, 400 kPa	39.59
403.05 K, 24500 kPa	40.33
403.05 K, 48000 kPa	40.9
442.85 K, 1150 kPa	32.36
442.85 K, 46400 kPa	36.89
